According to US20230399378A1, “PEPTIDE-BASED DELIVERY OF AGENTS” (THE FLOREY INSTITUTE OF NEUROSCIENCE AND MENTAL HEALTH, priority 2020, published 2023):
Each block holds one compound with its values, some of them ahead of it. Square brackets hold non-standard residues; d marks the D form. Peptide text beside a SMILES is read from it. * marks the point of attachment. Myristoyl = CCCCCCCCCCCCCC(=O)*; PMO = not defined here; AEEA = NCCOCCOCC(=O)O; Ahx = NCCCCCC(=O)O; Mpa = O=C(O)CCS

How the values were obtained:
[1] = Serum stability in 50% human serum at 37 °C (RP-HPLC, one-phase decay half-life); conditions: for proteolytic stability compared to the parent L-peptides: 50% human serum, 37° C.; for half-life at 500 µM: human, serum (50% human serum)
Experimental: Serum stability analysis was conducted for each peptide (7×50 nmol) shown in Table 3 in 50% human serum (100 μL) at 37° C. At the end of each time point (0, 10, 30, 60, 120, 240, and 480 min), 1 M guanidine hydrochloride solution (200 μL) and ice-cold acetonitrile (600 μL) were added, and the serum-peptide solution was centrifuged at 14000 g for 10 min. The supernatant was lyophilised and redissolved in water (200 μL). All samples were analysed by RP-HPLC in the presence of phenol (50 nmol) as an internal standard, using water and acetonitrile containing 0.1% TFA, with a gradient of 10-80% acetonitrile over 30 min, and a flow rate of 1.5 mL/min. The percentage of peptide remaining was measured based on the area under curve. The percentage of peptide remaining versus time data was fitted to a non-linear one-phase exponential decay model in GraphPad Prism 9.2.0 to determine the half-life for each peptide.

[2] = tested on: SMA patient-derived fibroblasts; assay: Confocal fluorescence uptake of Cy5-labelled peptide-PMO conjugates in SMA fibroblasts; format: cell-based, human; conditions: 1 μM, 1 hr at 37° C.
Experimental: FIG. 4. Representative confocal fluorescence microscopy images of SMA patient-derived fibroblasts treated with 1 μM of Cy5-labelled: (A) ApoE(141-150)-PMO; (B) HA2-ApoE(141-150)-PMO; (C) ApoE(133-150)-PMO; and (D) HA2-ApoE(133-150)-PMO, for 1 hr at 37° C.
SMA fibroblasts (6.0×10^4 cells/well) were plated onto a p-Slide 4 Well Ph+ Glass Bottom chamber slides precoated with poly-L-ornithine (Ibidi GmbH). After 24 hr, cells were incubated for 1 hr with Cy5-labelled peptide-PMO conjugates (1 μM or 5 μM) diluted in serum free Opti-MEM. At 10 min to end of 1 hr incubation, Hoechst (1:1000 dilution) was added to each well.

SMN2 = SMN2 splice-switching for exon 7 inclusion by RT-qPCR in SMA Type I patient-derived fibroblasts (Example 2); format: cell-based, human; conditions: FIG. 3B/3C; 0.5 μM and 1 μM
From the text: FIG. 3. (A) SMN2 pre-mRNA exon-7 skipping and production of 80-90% SMN2Δ7 mRNA transcripts. Peptide-PMO binding to Intron-splicing silencer (ISS-N1) and restoration of SMN2 splicing and production of full-length SMN2 mRNA transcripts. The positions of forward and reverse primers highlighted on full-length mRNA. (B)-(C) Effect of administration of peptides linked to PMO for SMN2 exon 7 inclusion, measured as change in the level of full length SMN2/HPRT1 in SMA patient-derived fibroblasts, each at two concentrations, 0.5 μM and 1 μM (or 1 μM and 5 μM in the case of PMO alone). UT, untreated. (B) For PMO constructs, from left to right: PMO; ApoE(141-150)-PMO; ApoE(133-150)-PMO. (C) For PMO constructs, from left to right: PMO; HA2-PMO; GALA-PMO; NLS-PMO; ApoE(141-150)-PMO; HA2-ApoE(141-150)-PMO; GALA-ApoE(141-150)-PMO; NLS-ApoE(141-150)-PMO; H4-ApoE(141-150)-PMO; A4-ApoE(141-150)-PMO. *P<0.05,**P<0.001, ***P<0.0001 cf. Untreated (control) and PMO (1 and 5 μM); #P<0.001 cf. GALA-/NLS-/H4-ApoE(141-150)-PMO (1 μM), ^<0.001 cf. ApoE(133-150)-PMO (0.5 and 1 μM), ^OP<0.001 cf. ApoE(141-150)-PMO (1 μM), ^&P<0.05 cf.
The inventors then evaluated cellular uptake and activity of these peptide-PMO conjugates in SMA Type I patient-derived fibroblasts with two copies of SMN2. Efficiency of uptake was assessed by RT-qPCR using SMN2 splice-switching for exon 7 inclusion (see FIG. 3A).
SMA Type I patient-derived fibroblasts (SMN2^+/+, GM03813, Coriell Cell Repositories) were maintained in Dulbecco's Modified Eagle's Medium (DMEM), supplemented with 10% foetal bovine serum (FBS), 1% Penicillin/Streptomycin and 1% L-glutamine (L-glu) at 37° C. Cells were plated in 6-well plates at a density of 3×10^5/well in 6 well plates one day prior to treatment with PMO and peptide-PMO conjugates. Cells used were from passage 8-22. PMO and the peptide-PMO conjugates were dissolved in nuclease-free water and diluted to appropriate concentrations in Opti-MEM reduced serum medium. Cells were treated for 4 hrs at 37° C. The transfection medium was then removed and replaced with growth medium in which the cells were incubated for 20 hrs.
Cells were washed with PBS and total cellular RNA was extracted using Trizol (TRI Reagent®, Sigma) according to the manufacturer's instructions (Life Technologies). 400 ng purified RNA was reverse transcribed into cDNA using BioRad iScript Reverse Transcription Supermix kit according to the manufacturer's instructions. The reverse transcription was performed using the Veriti Thermal Cycler (ThermoFisher Scientific) with the thermal cycling conditions: 25° C. for 5 min, 46° C. for 20 min, 95° C. for 1 min followed by a 4° C. holding period.
Quantitative PCR (20 ng cDNA/well) was carried out in a 96-well plate in triplicate using SsoAdvanced Universal SYBR Green Supermix on a Biorad CFX96 Touch™ Real-Time PCR detection system. The amplification was carried out using full-length SMN2-specific primers: Ex-6 Forward 5′-[…]-3′ (SEQ ID NO:10) and Ex7-8 reverse 5′[…]-3′ (SEQ ID NO:11). Human HPRT1 was used as the internal reference gene with forward primer sequence 5′-[…]-3′ (SEQ ID NO:12) and reverse primer sequence 5′-[…]-3′ (SEQ ID NO:13). The ΔΔCt method was used to correct the Ct values against the HPRT1 Ct values. The values obtained were normalised to the untreated control values which were set to 1. Statistical analysis was carried out using one-way ANOVA with post-hoc Bonferroni for multiple groups comparison (GraphPad Prism V.8, 2018). All data are expressed as mean±SEM from at least three independent experiments with p<0.05 considered significant.

fibroblasts = assay: Viability of fibroblasts by MTS assay (cytotoxicity); format: cell-based, human
Experimental: FIG. 5. Effect of the endosomal escape domain HA2 and lipidation of peptide-PMO conjugates on the viability of fibroblasts determined using MTS assay. UT, untreated control.
The peptide-PMO conjugates were tested up to 10 μM which is 10-fold greater than the concentration needed to achieve a high level of activity.

half-life at 500 µM [1]: 11.2 h
Compound: CC(C)C[C@@H](NC(=O)[C@@H](CCCNC(=N)N)NC(=O)[C@H](NC(=O)[C@@H](CCCNC(=N)N)NC(=O)[C@@H](CC(C)C)NC(=O)[C@@H](C)NC(=O)[C@@H](CO)NC(=O)[C@@H](Cc1c[nH]cn1)NC(=O)[C@@H](CC(C)C)NC(=O)[C@@H](CCCNC(=N)N)NC(=O)[C@@H](CCCCN)NC(=O)[C@@H](CC(C)C)NC(=O)[C@@H](CCCNC(=N)N)NC(=O)[C@@H](CCCCN)NC(=O)[C@@H](CCCNC(=N)N)NC(=O)[C@@H](CC(C)C)NC(=O)[C@@H](CC(C)C)NC(=O)[C@@H](CCCNC(=N)N)NC(=O)COCCOCCNC(=O)CCS)C(C)C)C(=O)O [RI TPA-ApoE(133-150), TPA-mPEG-rllrkrlkrlhsalrvrl] ([Mpa][AEEA][dR][dL][dL][dR][dK][dR][dL][dK][dR][dL][dH][dS][dA][dL][dR][dV][dR][dL]-OH)
proteolytic stability compared to the parent L-peptides [1]: significantly higher proteolytic stability

half-life at 500 µM [1]: 1.6 h
Compound: CC[C@@H](C)[C@@H](NC(=O)[C@@H](C)NC(=O)[C@@H](Cc1c[nH]cn1)NC(=O)[C@@H](Cc1ccccc1)NC(=O)[C@H](NC(=O)[C@@H](Cc1c[nH]cn1)NC(=O)CNC(=O)CNC(=O)[C@@H](Cc1c[nH]c2ccccc12)NC(=O)[C@@H](Cc1c[nH]cn1)NC(=O)COCCOCCNC(=O)CCS)[C@H](C)CC)C(=O)N[C@H](C)C(=O)N[C@H](Cc1c[nH]cn1)C(=O)N[C@H](Cc1ccccc1)C(=O)N[C@H](CC(C)C)C(=O)NCC(=O)NCCOCCOCC(=O)N[C@@H](CCCCN)C(=O)NCCOCCOCC(=O)N[C@H](CCCNC(=N)N)C(=O)N[C@H](CC(C)C)C(=O)N[C@H](CC(C)C)C(=O)N[C@H](CCCNC(=N)N)C(=O)N[C@H](CCCCN)C(=O)N[C@H](CCCNC(=N)N)C(=O)N[C@H](CC(C)C)C(=O)N[C@H](CCCCN)C(=O)N[C@H](CCCNC(=N)N)C(=O)N[C@H](CC(C)C)C(=O)N[C@H](Cc1c[nH]cn1)C(=O)N[C@H](CO)C(=O)N[C@H](C)C(=O)N[C@H](CC(C)C)C(=O)N[C@H](CCCNC(=N)N)C(=O)N[C@@H](C(=O)N[C@H](CCCNC(=N)N)C(=O)N[C@H](CC(C)C)C(=O)O)C(C)C [RI TPA-HA2-ApoE(133-150), TPA-mPEG-hwgghifhaiahflg-mPEG-K-mPEG-rllrkrlkrlhsalrvrl] ([Mpa][AEEA][dH][dW]GG[dH][dI][dF][dH][dA][dI][dA][dH][dF][dL]G[AEEA]K[AEEA][dR][dL][dL][dR][dK][dR][dL][dK][dR][dL][dH][dS][dA][dL][dR][dV][dR][dL]-OH)
proteolytic stability compared to the parent L-peptides [1]: significantly higher proteolytic stability

half-life at 500 µM [1]: 0.4 h
Compound: CC[C@@H](C)[C@@H](NC(=O)[C@@H](C)NC(=O)[C@@H](Cc1c[nH]cn1)NC(=O)[C@@H](Cc1ccccc1)NC(=O)[C@H](NC(=O)[C@@H](Cc1c[nH]cn1)NC(=O)CNC(=O)CNC(=O)[C@@H](Cc1c[nH]c2ccccc12)NC(=O)[C@@H](Cc1c[nH]cn1)NC(=O)COCCOCCNC(=O)CCS)[C@H](C)CC)C(=O)N[C@H](C)C(=O)N[C@H](Cc1c[nH]cn1)C(=O)N[C@H](Cc1ccccc1)C(=O)N[C@H](CC(C)C)C(=O)NCC(=O)NCCOCCOCC(=O)N[C@@H](CCCCN)C(=O)NCCOCCOCC(=O)N[C@H](CCCNC(=N)N)C(=O)N[C@H](CC(C)C)C(=O)N[C@H](CC(C)C)C(=O)N[C@H](CCCNC(=N)N)C(=O)N[C@H](CCCCN)C(=O)N[C@H](CCCNC(=N)N)C(=O)N[C@H](CC(C)C)C(=O)N[C@H](CCCCN)C(=O)N[C@H](CCCNC(=N)N)C(=O)N[C@H](CC(C)C)C(=O)O [RI TPA-HA2-ApoE(141-150), TPA-mPEG-hwgghifhaiahflg-mPEG-K-mPEG-rllrkrlkrl] ([Mpa][AEEA][dH][dW]GG[dH][dI][dF][dH][dA][dI][dA][dH][dF][dL]G[AEEA]K[AEEA][dR][dL][dL][dR][dK][dR][dL][dK][dR][dL]-OH)

Compound: CC[C@H](C)[C@H](NC(=O)[C@H](C)NC(=O)[C@H](Cc1c[nH]cn1)NC(=O)[C@H](Cc1ccccc1)NC(=O)[C@H](CC(C)C)NC(=O)CNC(=O)COCCOCCNC(=O)CCS)C(=O)N[C@@H](C)C(=O)N[C@@H](Cc1c[nH]cn1)C(=O)N[C@@H](Cc1ccccc1)C(=O)N[C@H](C(=O)N[C@@H](Cc1c[nH]cn1)C(=O)NCC(=O)NCC(=O)N[C@@H](Cc1c[nH]c2ccccc12)C(=O)N[C@@H](Cc1c[nH]cn1)C(=O)NCCOCCOCC(=O)N[C@@H](CC(C)C)C(=O)N[C@@H](CCCNC(=N)N)C(=O)N[C@H](C(=O)N[C@@H](CCCNC(=N)N)C(=O)N[C@@H](CC(C)C)C(=O)N[C@@H](C)C(=O)N[C@@H](CO)C(=O)N[C@@H](Cc1c[nH]cn1)C(=O)N[C@@H](CC(C)C)C(=O)N[C@@H](CCCNC(=N)N)C(=O)N[C@@H](CCCCN)C(=O)N[C@@H](CC(C)C)C(=O)N[C@@H](CCCNC(=N)N)C(=O)N[C@@H](CCCCN)C(=O)N[C@@H](CCCNC(=N)N)C(=O)N[C@@H](CC(C)C)C(=O)N[C@@H](CC(C)C)C(=O)N[C@@H](CCCNC(=N)N)C(=O)O)C(C)C)[C@@H](C)CC [TPA-HA2-ApoE(133-150), TPA-mPEG-GLFHAIAHFIHGGWH-mPEG-LR VRLASHLRKLRKRLLR] ([Mpa][AEEA]GLFHAIAHFIHGGWH[AEEA]LRVRLASHLRKLRKRLLR-OH)
half-life at 500 µM [1]: 1.1 h

Compound: Ac-LRKLRKRLLR-X-C-PMO [ApoE(141-150)-PMO]
intracellular fluorescence pattern [2]: punctate intracellular fluorescence pattern
exon-7 inclusion activity, dependence on concentration (SMN2): concentration-dependent increase in activity

Compound: Myr-GLFHAIAHFIHGGWH-X-LRKLRKRLLR-X-C-PMO ({Myristoyl-Gly-Leu-Phe-H2N-Ala-Ile-Ala-H2N-Phe-Ile-H2N-Gly-Gly-Trp-H2N-Ahx}-LRKLRKRLLR[Ahx]C-{PMO}; reading uncertain; also: printed as Myr-GLFHAIAHFIHGGWH-X-LRKLRKRLLR-X-C-PMO; UniProt P02649 159-168, looked up, fragment) [Myr-HA2-ApoE(141-150)-PMO]
effect on cell viability (fibroblasts; at 10 μM): decrease in cell viability
effect on cell viability (fibroblasts; up to 5 μM): None of the P-PMO conjugates had a significant effect on cell viability

Compound: Myr-GLFHAIAHFIHGGWH-X-LRVRLASHLRKLRKRLLR-X-C-PMO [Myr-HA2-ApoE(133-150)-PMO]
effect on cell viability (fibroblasts; at 10 μM): decrease in cell viability
effect on cell viability (fibroblasts; up to 5 μM): None of the P-PMO conjugates had a significant effect on cell viability
